# Patent US8940724B2, “Quinoline derivitives and their uses” (Amgen Inc., priority 2009, dated 2015)
# Target: T1, PI3Kδ (Homo sapiens, UniProt O00329)
# T1 construct: Full length p110 subunits of PI3k α, β and δ, N-terminally labeled with polyHis tag; polyHis (N); made in house; host or cells: Sf9 insect cells (baculovirus)
# Assay: PI3Kδ Alphascreen assay
# Format: biochemical
# T1 sequence (O00329 whole entry): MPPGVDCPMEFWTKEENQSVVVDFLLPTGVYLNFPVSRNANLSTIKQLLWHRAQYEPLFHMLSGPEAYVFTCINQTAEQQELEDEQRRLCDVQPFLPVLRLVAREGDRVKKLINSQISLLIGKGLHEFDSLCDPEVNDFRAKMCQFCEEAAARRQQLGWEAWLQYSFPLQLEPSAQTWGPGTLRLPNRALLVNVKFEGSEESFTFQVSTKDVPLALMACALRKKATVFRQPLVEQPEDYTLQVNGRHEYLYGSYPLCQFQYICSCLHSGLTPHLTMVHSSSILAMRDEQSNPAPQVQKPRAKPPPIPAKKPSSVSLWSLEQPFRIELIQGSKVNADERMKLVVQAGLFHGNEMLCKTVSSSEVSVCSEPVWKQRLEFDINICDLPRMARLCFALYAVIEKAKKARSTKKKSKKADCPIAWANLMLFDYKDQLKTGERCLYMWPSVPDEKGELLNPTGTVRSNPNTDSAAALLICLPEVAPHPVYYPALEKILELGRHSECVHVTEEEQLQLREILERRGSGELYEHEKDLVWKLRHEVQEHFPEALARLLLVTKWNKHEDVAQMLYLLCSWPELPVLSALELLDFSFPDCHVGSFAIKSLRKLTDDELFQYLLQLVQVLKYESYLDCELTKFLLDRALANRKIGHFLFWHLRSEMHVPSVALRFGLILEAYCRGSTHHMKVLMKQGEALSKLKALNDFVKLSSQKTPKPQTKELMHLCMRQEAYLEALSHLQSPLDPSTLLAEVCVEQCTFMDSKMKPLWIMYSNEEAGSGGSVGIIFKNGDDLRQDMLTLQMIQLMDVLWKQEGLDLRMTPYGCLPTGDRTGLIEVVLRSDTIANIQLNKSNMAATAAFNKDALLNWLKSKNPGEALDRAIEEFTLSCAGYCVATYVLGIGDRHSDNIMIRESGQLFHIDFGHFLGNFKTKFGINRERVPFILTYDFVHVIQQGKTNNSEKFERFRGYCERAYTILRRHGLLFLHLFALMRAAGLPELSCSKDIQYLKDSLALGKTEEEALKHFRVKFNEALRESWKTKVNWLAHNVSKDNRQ
# T1 sequence (P27986 whole entry partner): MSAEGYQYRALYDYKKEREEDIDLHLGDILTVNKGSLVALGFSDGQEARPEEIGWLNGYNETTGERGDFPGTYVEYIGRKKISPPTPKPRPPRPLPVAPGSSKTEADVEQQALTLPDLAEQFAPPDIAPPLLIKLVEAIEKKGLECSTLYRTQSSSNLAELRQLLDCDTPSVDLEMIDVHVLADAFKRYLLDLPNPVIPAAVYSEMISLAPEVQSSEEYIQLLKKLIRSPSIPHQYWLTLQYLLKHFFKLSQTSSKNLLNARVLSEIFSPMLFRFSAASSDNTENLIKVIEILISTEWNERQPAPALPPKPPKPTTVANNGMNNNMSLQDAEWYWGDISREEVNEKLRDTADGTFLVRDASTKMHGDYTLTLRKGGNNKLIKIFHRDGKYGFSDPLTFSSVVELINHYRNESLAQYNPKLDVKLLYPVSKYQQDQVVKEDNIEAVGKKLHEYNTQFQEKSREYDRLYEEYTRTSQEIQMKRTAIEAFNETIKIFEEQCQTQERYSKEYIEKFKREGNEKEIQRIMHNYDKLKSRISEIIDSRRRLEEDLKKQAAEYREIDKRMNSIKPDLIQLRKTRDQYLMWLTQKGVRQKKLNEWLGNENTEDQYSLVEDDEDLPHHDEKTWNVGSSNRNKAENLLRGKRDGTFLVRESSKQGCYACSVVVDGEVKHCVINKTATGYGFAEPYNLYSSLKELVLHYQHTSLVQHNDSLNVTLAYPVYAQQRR
row,SMILES,Ki [nM]
1,"COc1ccccc1-c1ncc(N2CCOCC2)cc1Nc1c(C)c(-c2ccccn2)nc2cc(F)cc(F)c12 [5,7-difluoro-N-(2-(2-methoxyphenyl)-5-(4-morpholinyl)-3-pyridinyl)-3-methyl-2-(2-pyridinyl)-4-quinolinamine]",8.53
2,"COc1cc(C)c(-c2ncc(N3CCOCC3)cc2Nc2c(C)c(-c3ccccn3)nc3cc(F)cc(F)c23)c(C)c1 [5,7-difluoro-N-(2-(4-methoxy-2,6-dimethylphenyl)-5-(4-morpholinyl)-3-pyridinyl)-3-methyl-2-(2-pyridinyl)-4-quinolinamine]",0.972
3,"COc1ccc(-c2ncc(N3CCOCC3)cc2Nc2c(C)c(-c3cc(C)ccn3)nc3cc(F)cc(F)c23)cc1 [5,7-difluoro-N-(2-(4-methoxyphenyl)-5-(4-morpholinyl)-3-pyridinyl)-3-methyl-2-(4-methyl-2-pyridinyl)-4-quinolinamine]",5.98
4,"COc1cncc(-c2ccc(N3CCOCC3)cc2Nc2c(C)c(-c3ccccn3)nc3cc(F)cc(F)c23)c1 [5,7-difluoro-N-(2-(5-methoxy-3-pyridinyl)-5-(4-morpholinyl)-phenyl)-3-methyl-2-(2-pyridinyl)-4-quinolinamine]",0.627
5,"COc1ccc(-c2ccc(N3CCOCC3)cc2Nc2c(C)c(-c3ccccc3S(C)(=O)=O)nc3cc(F)cc(F)c23)cn1 [5,7-difluoro-N-(2-(6-methoxy-3-pyridinyl)-5-(4-morpholinyl)-phenyl)-3-methyl-2-(2-(methylsulfonyl)phenyl)-4-quinolinamine]",2.73
6,"COc1ccc(-c2ccc(N3CCOCC3)cc2Nc2c(C)c(-c3ccccn3)nc3cc(F)cc(F)c23)cn1 [5,7-difluoro-N-(2-(6-methoxy-3-pyridinyl)-5-(4-morpholinyl)-phenyl)-3-methyl-2-(2-pyridinyl)-4-quinolinamine]",3.19
7,"COc1ccc(-c2ccc(N3CCOCC3)cc2Nc2c(C)c(-c3cc(C)ccn3)nc3cc(F)cc(F)c23)cn1 [5,7-difluoro-N-(2-(6-methoxy-3-pyridinyl)-5-(4-morpholinyl)-phenyl)-3-methyl-2-(4-methyl-2-pyridinyl)-4-quinolinamine]",3.59
8,"COc1ccc(-c2ccc(N3CCOCC3)cc2Nc2c(C)c(-c3ccccn3)nc3cc(F)cc(F)c23)cc1 [5,7-difluoro-N-(4′-methoxy-4-(4-morpholinyl)-2-biphenylyl)-3-methyl-2-(2-pyridinyl)-4-quinolinamine]",38.5
9,Cc1c(-c2ccccn2)nc2cccc(F)c2c1Nc1cc(N2CCOCC2)ccc1S(C)(=O)=O [5-fluoro-3-methyl-N-(2-(methylsulfonyl)-5-(4-morpholinyl)-phenyl)-2-(2-pyridinyl)-4-quinolinamine],0.485
10,Cc1c(-c2cc([N+](=O)[O-])ccc2F)nc2cc(F)ccc2c1Nc1cncc(N2CCOCC2)c1 [7-fluoro-2-(2-fluoro-5-nitrophenyl)-3-methyl-N-(5-(4-morpholinyl)-3-pyridinyl)-4-quinolinamine],47.5
11,Cc1ccnc(-c2nc3c(Cl)cccc3c(Nc3cncc(N4CCOCC4)c3)c2C)c1 [8-chloro-3-methyl-2-(4-methyl-2-pyridinyl)-N-(5-(4-morpholinyl)-3-pyridinyl)-4-quinolinamine],2.39
12,Cc1c(-c2ccccn2)nc2c(Cl)cccc2c1Nc1cncc(N2CCOCC2)c1 [8-chloro-3-methyl-N-(5-(4-morpholinyl)-3-pyridinyl)-2-(2-pyridinyl)-4-quinolinamine],7.45
13,"Cc1ccnc(-c2nc3c(Cl)cccc3c(Nc3cc(N4CCOCC4)cnc3N3CCOCC3)c2C)c1 [8-chloro-N-(2,5-di-4-morpholinyl-3-pyridinyl)-3-methyl-2-(4-methyl-2-pyridinyl)-4-quinolinamine]",9.49
14,"Cc1c(-c2ccccn2)nc2c(Cl)c(F)cc(F)c2c1Nc1cc(N2CCOCC2)cnc1N1CCOCC1 [8-chloro-N-(2,5-di-4-morpholinyl-3-pyridinyl)-5,7-difluoro-3-methyl-2-(2-pyridinyl)-4-quinolinamine]",2.85
15,"Cc1c(-c2ccccn2)nc2c(Cl)ccc(F)c2c1Nc1cc(N2CCOCC2)cnc1N1CCOCC1 [8-chloro-N-(2,5-di-4-morpholinyl-3-pyridinyl)-5-fluoro-3-methyl-2-(2-pyridinyl)-4-quinolinamine]",2.57
16,"Cc1c(-c2ccccn2)nc2c(Cl)c(F)ccc2c1Nc1cc(N2CCOCC2)cnc1N1CCOCC1 [8-chloro-N-(2,5-di-4-morpholinyl-3-pyridinyl)-7-fluoro-3-methyl-2-(2-pyridinyl)-4-quinolinamine]",22.6
17,"Cc1c(-c2cc([C@@H](C)O)ccc2S(C)(=O)=O)nc2cc(F)cc(F)c2c1Nc1cncc(N2CCOCC2)c1 [(1R)-1-(3-(5,7-difluoro-3-methyl-4-((5-(4-morpholinyl)-3-pyridinyl)amino)-2-quinolinyl)-4-(methylsulfonyl)phenyl)-ethanol]",1.57
18,"Cc1c(-c2ccccn2)nc2cc(F)cc(F)c2c1Nc1cc(C2=CCOCC2)cnc1C1=CCOCC1 [N-(2,5-di-3,6-dihydro-2H-pyran-4-yl-3-pyridinyl)-5,7-difluoro-3-methyl-2-(2-pyridinyl)-4-quinolinamine]",3.08

row,SMILES,Ki [nM]
1,"C=Cc1ccnc(-c2nc3cc(F)cc(F)c3c(Nc3cc(N4CCOCC4)cnc3N3CCOCC3)c2C)c1 [N-(2,5-di-4-morpholinyl-3-pyridinyl)-2-(4-ethenyl-2-pyridinyl)-5,7-difluoro-3-methyl-4-quinolinamine]",119
2,"CCOc1ccc(-c2nc3cc(F)cc(F)c3c(Nc3cc(N4CCOCC4)cnc3N3CCOCC3)c2C)cn1 [N-(2,5-di-4-morpholinyl-3-pyridinyl)-2-(6-ethoxy-3-pyridinyl)-5,7-difluoro-3-methyl-4-quinolinamine]",25.5
3,"Cc1c(-c2ccccc2F)nc2cc(F)cc(F)c2c1Nc1cc(N2CCOCC2)cnc1N1CCOCC1 [N-(2,5-di-4-morpholinyl-3-pyridinyl)-5,7-difluoro-2-(2-fluorophenyl)-3-methyl-4-quinolinamine]",6.22
4,"COc1cc(-c2nc3cc(F)cc(F)c3c(Nc3cc(N4CCOCC4)cnc3N3CCOCC3)c2C)ccn1 [N-(2,5-di-4-morpholinyl-3-pyridinyl)-5,7-difluoro-2-(2-methoxy-4-pyridinyl)-3-methyl-4-quinolinamine]",33.4
5,"Cc1c(-c2ccc(F)nc2)nc2cc(F)cc(F)c2c1Nc1cc(N2CCOCC2)cnc1N1CCOCC1 [N-(2,5-di-4-morpholinyl-3-pyridinyl)-5,7-difluoro-2-(6-fluoro-3-pyridinyl)-3-methyl-4-quinolinamine]",18.5
6,"COc1ccc(-c2nc3cc(F)cc(F)c3c(Nc3cc(N4CCOCC4)cnc3N3CCOCC3)c2C)cn1 [N-(2,5-di-4-morpholinyl-3-pyridinyl)-5,7-difluoro-2-(6-methoxy-3-pyridinyl)-3-methyl-4-quinolinamine]",33.2
7,"Cc1c(-c2cccc3c2cnn3C)nc2cc(F)cc(F)c2c1Nc1cc(N2CCOCC2)cnc1N1CCOCC1 [N-(2,5-di-4-morpholinyl-3-pyridinyl)-5,7-difluoro-3-methyl-2-(1-methyl-1H-indazol-4-yl)-4-quinolinamine]",8.6
8,"Cc1c(-c2cccc3c2ccn3C)nc2cc(F)cc(F)c2c1Nc1cc(N2CCOCC2)cnc1N1CCOCC1 [N-(2,5-di-4-morpholinyl-3-pyridinyl)-5,7-difluoro-3-methyl-2-(1-methyl-1H-indol-4-yl)-4-quinolinamine]",16.1
9,"Cc1c(-c2ccnc(N3CCNCC3)c2)nc2cc(F)cc(F)c2c1Nc1cc(N2CCOCC2)cnc1N1CCOCC1 [N-(2,5-di-4-morpholinyl-3-pyridinyl)-5,7-difluoro-3-methyl-2-(2-(1-piperazinyl)-4-pyridinyl)-4-quinolinamine]",34.7
10,"Cc1c(-c2ccnc(N3CCCC3)c2)nc2cc(F)cc(F)c2c1Nc1cc(N2CCOCC2)cnc1N1CCOCC1 [N-(2,5-di-4-morpholinyl-3-pyridinyl)-5,7-difluoro-3-methyl-2-(2-(1-pyrrolidinyl)-4-pyridinyl)-4-quinolinamine]",40.7
11,"Cc1c(-c2ccnc(N3CCN(C)CC3)c2)nc2cc(F)cc(F)c2c1Nc1cc(N2CCOCC2)cnc1N1CCOCC1 [N-(2,5-di-4-morpholinyl-3-pyridinyl)-5,7-difluoro-3-methyl-2-(2-(4-methyl-1-piperazinyl)-4-pyridinyl)-4-quinolinamine]",15
12,"Cc1c(-c2ccccc2[S@+](C)[O-])nc2cc(F)cc(F)c2c1Nc1cc(N2CCOCC2)cnc1N1CCOCC1 [N-(2,5-di-4-morpholinyl-3-pyridinyl)-5,7-difluoro-3-methyl-2-(2-((S)-methylsulfinyl)phenyl)-4-quinolinamine]",51
13,"Cc1ncccc1-c1nc2cc(F)cc(F)c2c(Nc2cc(N3CCOCC3)cnc2N2CCOCC2)c1C [N-(2,5-di-4-morpholinyl-3-pyridinyl)-5,7-difluoro-3-methyl-2-(2-methyl-3-pyridinyl)-4-quinolinamine]",1.71
14,"Cc1cc(C(F)(F)F)ccc1-c1nc2cc(F)cc(F)c2c(Nc2cc(N3CCOCC3)cnc2N2CCOCC2)c1C [N-(2,5-di-4-morpholinyl-3-pyridinyl)-5,7-difluoro-3-methyl-2-(2-methyl-4-(trifluoromethyl)phenyl)-4-quinolinamine]",248
15,"Cc1cc(-c2nc3cc(F)cc(F)c3c(Nc3cc(N4CCOCC4)cnc3N3CCOCC3)c2C)ccn1 [N-(2,5-di-4-morpholinyl-3-pyridinyl)-5,7-difluoro-3-methyl-2-(2-methyl-4-pyridinyl)-4-quinolinamine]",26.5
16,"Cc1c(-c2cnccn2)nc2cc(F)cc(F)c2c1Nc1cc(N2CCOCC2)cnc1N1CCOCC1 [N-(2,5-di-4-morpholinyl-3-pyridinyl)-5,7-difluoro-3-methyl-2-(2-pyrazinyl)-4-quinolinamine]",7.95
17,"Cc1c(-c2cccnc2)nc2cc(F)cc(F)c2c1Nc1cc(N2CCOCC2)cnc1N1CCOCC1 [N-(2,5-di-4-morpholinyl-3-pyridinyl)-5,7-difluoro-3-methyl-2-(3-pyridinyl)-4-quinolinamine]",8.43
18,"Cc1c(N2CCN(C)CC2)nc2cc(F)cc(F)c2c1Nc1cc(N2CCOCC2)cnc1N1CCOCC1 [N-(2,5-di-4-morpholinyl-3-pyridinyl)-5,7-difluoro-3-methyl-2-(4-methyl-1-piperazinyl)-4-quinolinamine]",12
